Laboratory results taken from patent publication US6706740B2, “Fungicidal heterocyclic aromatic amides and their compositions, methods of use and preparation” (Dow AgroSciences LLC, priority 1999, dated 2004).

Test system: Magnaporthe grisea (Pyricularia oryzae—PYRIOR)
Assay: microbe, parasite or virus in culture
Type: cell-based
Conditions: Pyricularia oryzae, read-out: PYRIOR in vitro Growth Inhibition
For `Cc1cc(C)c(C(=O)NC2CC(C)(C)CC(C)(C)C2)c(O)n1` [Compound 528], the inhibition at 25 ppm was < 80%. For `COc1ccnc(C(=O)Nc2ccc(Oc3cccc(C(F)(F)F)n3)cc2)c1O` [Compound 463], the inhibition at 25 ppm was < 80%. With `COc1ccnc(C(=O)Nc2ccc(NC(=O)c3cccc(C(F)(F)F)c3)cc2)c1OC(C)=O` [Compound 719] the inhibition at 25 ppm was < 80%.

Test system: Rhizoctonia solani (RHIZSO)
Assay: microbe, parasite or virus in culture
Type: cell-based
Conditions: Rhizoctonia solani, read-out: RHIZSO in vitro Growth Inhibition
With `Cc1cc(C)c(C(=O)NC2CC(C)(C)CC(C)(C)C2)c(O)n1` [Compound 528] the inhibition at 25 ppm was < 80%. For `COc1ccnc(C(=O)Nc2ccc(Oc3cccc(C(F)(F)F)n3)cc2)c1O` [Compound 463], the inhibition at 25 ppm was < 80%. With `COc1ccnc(C(=O)Nc2ccc(NC(=O)c3cccc(C(F)(F)F)c3)cc2)c1OC(C)=O` [Compound 719] the inhibition at 25 ppm was < 80%.

Test system: Mycosphaerella graminicola (Septoria tritici—SEPTTR)
Assay: In vitro fungal growth inhibition, Mycosphaerella graminicola (SEPTTR)
Type: cell-based
Conditions: Zymoseptoria tritici; 25 ppm in growth medium; read-out: SEPTTR in vitro Growth Inhibition
For `COc1ccnc(C(=O)Nc2ccc(NC(=O)c3cccc(C(F)(F)F)c3)cc2)c1OC(C)=O` [Compound 719], the inhibition at 25 ppm was < 80%.

Same assay, conditions: Zymoseptoria tritici; 25 ppm in the growth medium; read-out: SEPTTR in vitro Growth Inhibition
In the case of `Cc1cc(C)c(C(=O)NC2CC(C)(C)CC(C)(C)C2)c(O)n1` [Compound 528], the inhibition at 25 ppm is reported as < 80%. In the case of `COc1ccnc(C(=O)Nc2ccc(Oc3cccc(C(F)(F)F)n3)cc2)c1O` [Compound 463], the inhibition at 25 ppm is reported as < 80%.

Test system: Stagonospora nodorum (Leptosphaeria nodorum—LEPTNO)
Assay: In vitro fungal growth inhibition, Stagonospora nodorum (LEPTNO)
Type: cell-based
Conditions: Leptosphaeria; 25 ppm in growth medium; read-out: LEPTNO in vitro Growth Inhibition
For `COc1ccnc(C(=O)Nc2ccc(NC(=O)c3cccc(C(F)(F)F)c3)cc2)c1OC(C)=O` [Compound 719], the inhibition at 25 ppm was < 80%.

Same assay, conditions: Leptosphaeria; 25 ppm in the growth medium; read-out: LEPTNO in vitro Growth Inhibition
With `Cc1cc(C)c(C(=O)NC2CC(C)(C)CC(C)(C)C2)c(O)n1` [Compound 528] the inhibition at 25 ppm was < 80%. With `COc1ccnc(C(=O)Nc2ccc(Oc3cccc(C(F)(F)F)n3)cc2)c1O` [Compound 463] the inhibition at 25 ppm was < 80%.

Test system: Ustilago maydis (USTIMA)
Assay: microbe, parasite or virus in culture
Type: cell-based
Conditions: Mycosarcoma maydis, read-out: USTIMA in vitro Growth Inhibition
In the case of `Cc1cc(C)c(C(=O)NC2CC(C)(C)CC(C)(C)C2)c(O)n1` [Compound 528], the inhibition at 25 ppm is reported as < 80%. With `COc1ccnc(C(=O)Nc2ccc(Oc3cccc(C(F)(F)F)n3)cc2)c1O` [Compound 463] the inhibition at 25 ppm was < 80%. For `COc1ccnc(C(=O)Nc2ccc(NC(=O)c3cccc(C(F)(F)F)c3)cc2)c1OC(C)=O` [Compound 719], the inhibition at 25 ppm was < 80%.

Test system: Phytophthora infestans (PHYTIN)
Assay: microbe, parasite or virus in culture
Type: cell-based
Conditions: Phytophthora infestans, read-out: PHYTIN in vitro Growth Inhibition
For `Cc1cc(C)c(C(=O)NC2CC(C)(C)CC(C)(C)C2)c(O)n1` [Compound 528], the inhibition at 25 ppm was < 80%. For `COc1ccnc(C(=O)Nc2ccc(Oc3cccc(C(F)(F)F)n3)cc2)c1O` [Compound 463], the inhibition at 25 ppm was < 80%. For `COc1ccnc(C(=O)Nc2ccc(NC(=O)c3cccc(C(F)(F)F)c3)cc2)c1OC(C)=O` [Compound 719], the inhibition at 25 ppm was < 80%.

Test system: Phytophthora infestans—PHYTIN
Assay: whole plant or invertebrate
Type: in vivo
Conditions: Phytophthora, in Solanum lycopersicum, 24 h, read-out: PHYTIN in vivo 1 Day Protectant
With `Cc1cc(C)c(C(=O)NC2CC(C)(C)CC(C)(C)C2)c(O)n1` [Compound 528] the pest or weed control at 100 ppm was < 25%. With `COc1ccnc(C(=O)Nc2ccc(Oc3cccc(C(F)(F)F)n3)cc2)c1O` [Compound 463] the pest or weed control at 100 ppm was < 25%. In the case of `COc1ccnc(C(=O)Nc2ccc(NC(=O)c3cccc(C(F)(F)F)c3)cc2)c1OC(C)=O` [Compound 719], the pest or weed control at 100 ppm is reported as < 25%.

Test system: Puccinia recondita—PUCCRT
Assay: Brown Rust of Wheat, in vivo whole plant, 24 Hour Protectant
Conditions: Puccinia; 100 ppm spray, wheat, 24 hour protectant, % control of fungal infection vs untreated plants; read-out: PUCCRT in vivo 1 Day Protectant
With `COc1ccnc(C(=O)Nc2ccc(NC(=O)c3cccc(C(F)(F)F)c3)cc2)c1OC(C)=O` [Compound 719] the pest or weed control at 100 ppm was < 25%.

Same assay, conditions: Puccinia; wheat plants sprayed at 100 ppm, inoculated after 24 hours; control of fungal infection vs untreated plants; read-out: PUCCRT in vivo 1 Day Protectant
With `Cc1cc(C)c(C(=O)NC2CC(C)(C)CC(C)(C)C2)c(O)n1` [Compound 528] the pest or weed control at 100 ppm was < 25%. For `COc1ccnc(C(=O)Nc2ccc(Oc3cccc(C(F)(F)F)n3)cc2)c1O` [Compound 463], the pest or weed control at 100 ppm was < 25%.

Test system: Erysiphe graminis—ERYSGT
Assay: Powdery Mildew of Wheat, in vivo whole plant, 24 Hour Protectant
Conditions: Erysiphe; 100 ppm spray, wheat, 24 hour protectant, % control of fungal infection vs untreated plants; read-out: ERYSGT in vivo 1 Day Protectant
With `COc1ccnc(C(=O)Nc2ccc(NC(=O)c3cccc(C(F)(F)F)c3)cc2)c1OC(C)=O` [Compound 719] the pest or weed control at 100 ppm was < 25%.

Same assay, conditions: Erysiphe; wheat plants sprayed at 100 ppm, inoculated after 24 hours; control of fungal infection vs untreated plants; read-out: ERYSGT in vivo 1 Day Protectant
In the case of `Cc1cc(C)c(C(=O)NC2CC(C)(C)CC(C)(C)C2)c(O)n1` [Compound 528], the pest or weed control at 100 ppm is reported as < 25%. In the case of `COc1ccnc(C(=O)Nc2ccc(Oc3cccc(C(F)(F)F)n3)cc2)c1O` [Compound 463], the pest or weed control at 100 ppm is reported as < 25%.

Test system: Septoria tritici—SEPTTR
Assay: Leaf Blotch of Wheat, in vivo whole plant, 24 Hour Protectant
Conditions: Zymoseptoria tritici, 24 h, 100 ppm spray, wheat, 24 hour protectant, % control of fungal infection vs untreated plants; read-out: SEPTTR in vivo 1 Day Protectant
In the case of `COc1ccnc(C(=O)Nc2ccc(NC(=O)c3cccc(C(F)(F)F)c3)cc2)c1OC(C)=O` [Compound 719], the pest or weed control at 100 ppm is reported as < 25%.

Same assay, conditions: Zymoseptoria tritici, 24 h, wheat plants sprayed at 100 ppm, inoculated after 24 hours; control of fungal infection vs untreated plants; read-out: SEPTTR in vivo 1 Day Protectant
In the case of `Cc1cc(C)c(C(=O)NC2CC(C)(C)CC(C)(C)C2)c(O)n1` [Compound 528], the pest or weed control at 100 ppm is reported as 25 to 74%. With `COc1ccnc(C(=O)Nc2ccc(Oc3cccc(C(F)(F)F)n3)cc2)c1O` [Compound 463] the pest or weed control at 100 ppm was 25 to 74%.

Test system: Leptosphaeria nodorum—LEPTNO
Assay: Glume Blotch of Wheat, in vivo whole plant, 24 Hour Protectant
Conditions: Leptosphaeria; 100 ppm spray, wheat, 24 hour protectant, % control of fungal infection vs untreated plants; read-out: LEPTNO in vivo 1 Day Protectant
`COc1ccnc(C(=O)Nc2ccc(NC(=O)c3cccc(C(F)(F)F)c3)cc2)c1OC(C)=O` [Compound 719] showed a pest or weed control at 100 ppm of 25 to 74%.

Same assay, conditions: Leptosphaeria; wheat plants sprayed at 100 ppm, inoculated after 24 hours; control of fungal infection vs untreated plants; read-out: LEPTNO in vivo 1 Day Protectant
For `Cc1cc(C)c(C(=O)NC2CC(C)(C)CC(C)(C)C2)c(O)n1` [Compound 528], the pest or weed control at 100 ppm was < 25%. In the case of `COc1ccnc(C(=O)Nc2ccc(Oc3cccc(C(F)(F)F)n3)cc2)c1O` [Compound 463], the pest or weed control at 100 ppm is reported as < 25%.

Test system: not given
Assay: not given
Conditions: not given
Compound `Cc1cc(C)c(C(=O)NC2CC(C)(C)CC(C)(C)C2)c(O)n1` [Compound 528] has a melting point of 286 to 288 °C. Work on `COc1ccnc(C(=O)Nc2ccc(Oc3cccc(C(F)(F)F)n3)cc2)c1O` [Compound 463] yielded a melting point of 140 to 141.5 °C. With `COc1ccnc(C(=O)Nc2ccc(NC(=O)c3cccc(C(F)(F)F)c3)cc2)c1OC(C)=O` [Compound 719] the melting point was 124 to 126 °C.
